Tests used:
[1] = DRUGMATRIX: Interleukin IL-1 radioligand binding (ligand: [125I] interleukin 1beta); type: cell membranes, Membrane; conditions: nih3t3; Not Active = under 50% inhibition at 10 µM
[2] = DRUGMATRIX: Calcium Channel Type L, Dihydropyridine radioligand binding (ligand: [3H] Nitrendipine); type: cell membranes, Rattus norvegicus, Wistar, Cerebral cortex, Membrane; conditions: Not Active = under 50% inhibition at 10 µM
[3] = target: 5-hydroxytryptamine receptor 2B (Homo sapiens, UniProt P41595); type: cell membranes, CHO-K1, Membrane; further: in other assays of this panel Not Active means under 50% inhibition at 10 µM
Chain of 5-hydroxytryptamine receptor 2B (P41595 whole entry): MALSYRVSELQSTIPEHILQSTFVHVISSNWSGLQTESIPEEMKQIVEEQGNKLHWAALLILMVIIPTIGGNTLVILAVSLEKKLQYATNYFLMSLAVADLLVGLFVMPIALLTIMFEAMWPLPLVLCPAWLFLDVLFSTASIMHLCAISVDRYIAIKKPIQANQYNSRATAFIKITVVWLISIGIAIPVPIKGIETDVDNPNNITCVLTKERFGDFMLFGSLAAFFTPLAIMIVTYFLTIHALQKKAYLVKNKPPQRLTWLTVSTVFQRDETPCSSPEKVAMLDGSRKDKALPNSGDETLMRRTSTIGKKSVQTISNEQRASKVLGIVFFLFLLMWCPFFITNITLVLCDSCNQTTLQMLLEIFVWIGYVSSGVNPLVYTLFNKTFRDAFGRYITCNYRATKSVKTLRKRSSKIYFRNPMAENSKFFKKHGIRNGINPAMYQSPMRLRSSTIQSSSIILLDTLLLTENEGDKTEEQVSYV

[4] = target: Kappa-type opioid receptor (Homo sapiens, UniProt P41145); experiment: DRUGMATRIX: Opiate kappa (OP2, KOP) radioligand binding (ligand: [3H] Diprenorphine); type: cell membranes, HEK293, Membrane; conditions: Not Active = under 50% inhibition at 10 µM
Chain of Kappa-type opioid receptor (P41145 whole entry): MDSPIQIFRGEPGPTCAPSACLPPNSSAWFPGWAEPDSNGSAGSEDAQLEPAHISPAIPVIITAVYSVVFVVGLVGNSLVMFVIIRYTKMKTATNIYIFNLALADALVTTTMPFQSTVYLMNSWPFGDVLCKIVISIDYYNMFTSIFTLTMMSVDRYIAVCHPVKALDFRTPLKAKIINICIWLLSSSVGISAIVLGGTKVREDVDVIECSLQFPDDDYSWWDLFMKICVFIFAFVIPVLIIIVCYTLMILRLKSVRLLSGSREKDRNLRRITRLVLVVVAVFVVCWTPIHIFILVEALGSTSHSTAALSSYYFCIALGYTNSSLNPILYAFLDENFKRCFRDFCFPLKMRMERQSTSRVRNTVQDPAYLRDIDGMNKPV

[5] = DRUGMATRIX: Calcium Channel Type L, Phenylalkylamine radioligand binding (ligand: [3H] (-)-Desmethoxyverapamil (D-888)); type: cell membranes, Rattus norvegicus, Wistar, Brain, Membrane; conditions: Not Active = under 50% inhibition at 10 µM
[6] = DRUGMATRIX: GABAA, Flunitrazepam, Central radioligand binding (ligand: [3H] Flunitrazepam); type: cell membranes, Rattus norvegicus, Wistar, Brain, Membrane; conditions: Not Active = under 50% inhibition at 10 µM

Compound | IC50 [1] | Ki [1] | IC50 [2] | Ki [2] | IC50 ([3]; cho-k1) | IC50 ([4]; hek293) | IC50 [5] | Ki [5] | IC50 [6] | Ki [6] | IC50 ([3]; read-out: IC50) [nM] | Ki ([3]; read-out: Ki) [nM] | Ki [4] [nM] | IC50 ([4]; read-out: IC50) [nM] | IC50 ([2]; read-out: IC50) [nM] | Ki ([2]; read-out: Ki) [nM] | IC50 ([5]; read-out: IC50) [nM] | Ki ([5]; read-out: Ki) [nM] | Ki ([3]; cho-k1)
CCCCC(=O)N(Cc1ccc(-c2ccccc2-c2nnn[nH]2)cc1)[C@H](C(=O)O)C(C)C | Not Active | Not Active | Not Active | Not Active | Not Active | Not Active | Not Active | Not Active | Not Active | Not Active | – | – | – | – | – | – | – | – | –
O=C(O)COc1ccc(C(=O)c2cccs2)c(Cl)c1Cl | Not Active | Not Active | Not Active | Not Active | Not Active | Not Active | Not Active | Not Active | Not Active | Not Active | – | – | – | – | – | – | – | – | –
CN1[C@@H]2CC[C@H]1C[C@@H](OC(c1ccccc1)c1ccccc1)C2 [BENZTROPINE] | – | – | – | – | – | Not Active | – | – | – | – | 200 | 127 | – | – | – | – | – | – | –
C[C@@](Cc1ccc(O)c(O)c1)(NN)C(=O)O.O [CARBIDOPA] | Not Active | Not Active | Not Active | Not Active | Not Active | Not Active | Not Active | Not Active | Not Active | Not Active | – | – | – | – | – | – | – | – | –
CN1CCN(C2=Nc3cc(Cl)ccc3Nc3ccccc32)CC1 [CLOZAPINE] | – | – | – | – | – | Not Active | – | – | – | – | – | – | – | – | – | – | – | – | –
CC(C)NC[C@@H](O)COc1cccc2ccccc12 [DEXPROPRANOLOL] | – | – | – | – | – | Not Active | – | – | – | – | – | – | – | – | – | – | – | – | –
CC(C)NC[C@H](O)COc1cccc2ccccc12 [LEVOPROPRANOLOL] | – | – | – | – | – | Not Active | – | – | – | – | – | – | – | – | – | – | – | – | –
O=C(O)CCCCC1CCSS1 (stereo not drawn) [LIPOIC ACID, ALPHA] | Not Active | Not Active | Not Active | Not Active | Not Active | Not Active | Not Active | Not Active | Not Active | Not Active | – | – | – | – | – | – | – | – | –
CN(C)C(=O)C(CCN1CCC(O)(c2ccc(Cl)cc2)CC1)(c1ccccc1)c1ccccc1 [LOPERAMIDE] | – | – | – | – | – | – | – | – | – | – | 4100 | 2610 | – | – | – | – | – | – | –
Clc1ccc(COC(Cn2ccnc2)c2ccc(Cl)cc2Cl)c(Cl)c1 (configuration not stated) [MICONAZOLE] | – | – | – | – | – | – | – | – | – | – | 5550 | 3530 | 2640 | 6590 | – | – | – | – | –
Oc1ccc2c3c1O[C@H]1[C@@H](O)CC[C@@]4(O)[C@@H](C2)N(CC2CCC2)CC[C@]314 [NALBUPHINE] | – | – | – | – | Not Active | – | – | – | – | – | – | – | – | – | – | – | – | – | –
C[C@]12C=CC(=O)C=C1CC[C@@H]1[C@@H]2C(=O)C[C@@]2(C)[C@H]1CC[C@]2(O)C(=O)CO [PREDNISONE] | Not Active | Not Active | Not Active | Not Active | Not Active | Not Active | Not Active | Not Active | Not Active | Not Active | – | – | – | – | – | – | – | – | –
OCCOCCN1CCN(C2=Nc3ccccc3Sc3ccccc32)CC1 [QUETIAPINE] | – | – | – | – | – | Not Active | – | – | – | – | – | – | – | – | – | – | – | – | –
COC(=O)[C@H]1[C@H]2C[C@@H]3c4[nH]c5cc(OC)ccc5c4CCN3C[C@H]2C[C@@H](OC(=O)c2cc(OC)c(OC)c(OC)c2)[C@@H]1OC [RESERPINE] | Not Active | Not Active | – | – | Not Active | Not Active | – | – | Not Active | Not Active | – | – | – | – | 821 | 528 | 2050 | 1990 | –
O=C(O)c1ccccc1O [SALICYLIC ACID] | Not Active | Not Active | Not Active | Not Active | Not Active | – | Not Active | Not Active | Not Active | Not Active | – | – | – | – | – | – | – | – | –
C[S+]([O-])c1ccc(-c2nc(-c3ccncc3)c(-c3ccc(F)cc3)[nH]2)cc1 (configuration not stated) [SB-203580] | – | – | – | – | Not Active | Not Active | – | – | – | – | – | – | – | – | – | – | – | – | –
CC1CCC(NC(=O)N(CCCl)N=O)CC1 (configuration not stated) [SEMUSTINE] | Not Active | Not Active | Not Active | Not Active | Not Active | Not Active | Not Active | Not Active | Not Active | Not Active | – | – | – | – | – | – | – | – | –
O=C1C[C@@H]2OCC=C3CN4CC[C@]56c7ccccc7N1[C@H]5[C@H]2[C@H]3C[C@H]46 [STRYCHNINE] | Not Active | Not Active | Not Active | Not Active | Not Active | – | Not Active | Not Active | Not Active | Not Active | – | – | – | – | – | – | – | – | –
C[N+](C)(C)CCOC(=O)CCC(=O)OCC[N+](C)(C)C.[Cl-].[Cl-] [SUCCINYLCHOLINE CHLORIDE] | Not Active | Not Active | Not Active | Not Active | Not Active | – | Not Active | Not Active | Not Active | Not Active | – | – | – | – | – | – | – | – | –
Nc1ccc(S(=O)(=O)NC(=O)c2ccccc2)cc1 [SULFABENZAMIDE] | Not Active | Not Active | Not Active | Not Active | Not Active | Not Active | Not Active | Not Active | Not Active | Not Active | – | – | – | – | – | – | – | – | –
CCCCCCCCNC(C)C(O)c1ccc(SC(C)C)cc1 (configuration not stated) [SULOCTIDIL] | – | – | – | – | – | Not Active | – | – | Not Active | Not Active | 939 | 598 | – | – | 260 | 167 | 525 | 510 | –
O=c1[nH]c(=O)n(C2CCCO2)cc1F (configuration not stated) [TEGAFUR] | Not Active | Not Active | Not Active | Not Active | Not Active | Not Active | Not Active | Not Active | Not Active | Not Active | – | – | – | – | – | – | – | – | –
CC(=N)S [THIOACETAMIDE] | Not Active | Not Active | Not Active | Not Active | Not Active | Not Active | Not Active | Not Active | Not Active | Not Active | – | – | – | – | – | – | – | – | –
Cc1ccc(C(=O)c2ccc(CC(=O)O)n2C)cc1 [TOLMETIN] | Not Active | Not Active | Not Active | Not Active | Not Active | Not Active | Not Active | Not Active | Not Active | Not Active | – | – | – | – | – | – | – | – | –
CC(=O)OCC(COC(C)=O)OC(C)=O [TRIACETIN] | Not Active | Not Active | Not Active | Not Active | Not Active | Not Active | Not Active | Not Active | Not Active | Not Active | – | – | – | – | – | – | – | – | –
CN1CCN(CCCN2c3ccccc3Sc3ccc(C(F)(F)F)cc32)CC1 [TRIFLUOPERAZINE] | Not Active | Not Active | Not Active | Not Active | Not Active | Not Active | Not Active | Not Active | Not Active | Not Active | – | – | – | – | – | – | – | – | –
TRANSPLATIN | Not Active | Not Active | Not Active | Not Active | Not Active | – | Not Active | Not Active | Not Active | Not Active | – | – | – | – | – | – | – | – | Not Active
ZIRCONIUM(IV) CHLORIDE | Not Active | Not Active | Not Active | Not Active | Not Active | – | Not Active | Not Active | Not Active | Not Active | – | – | – | – | – | – | – | – | Not Active

— ChEMBL document CHEMBL1909046, “DrugMatrix in vitro pharmacology data”
